Laboratory results taken from ChEMBL document CHEMBL3885881, “DrugMatrix”.

Species: Rattus norvegicus
Assay: DrugMatrix - Regimen: Daily Repeat
Format: toxicity, organism-based, Sprague-Dawley
Set-up: regimen Daily Repeat, gender Male, age 6-8 weeks
Settings: in vivo, po, route oral GAVAGE, vehicle 100 % WATER; for ABSOLUTE BASOPHIL / ABSOLUTE EOSINOPHIL / ABSOLUTE LYMPHOCYTE / ABSOLUTE MONOCYTE / ABSOLUTE SEGMENTED NEUTROPHIL / BASOPHIL / EOSINOPHIL / ERYTHROCYTE COUNT / HEMATOCRIT / HEMOGLOBIN / LEUKOCYTE COUNT / LYMPHOCYTE / MEAN CORPUSCULAR HEMOGLOBIN / MEAN CORPUSCULAR HEMOGLOBIN CONCENTRATION / MEAN CORPUSCULAR VOLUME / MONOCYTE / NEUTROPHIL / NUCLEATED RED BLOOD CELLS / PLATELET COUNT: tissue Blood; for ALANINE AMINOTRANSFERASE / ALBUMIN / ALKALINE PHOSPHATASE / ASPARTATE AMINOTRANSFERASE / BLOOD UREA NITROGEN / CARBON DIOXIDE / CHLORIDE / CHOLESTEROL / CREATINE PHOSPHOKINASE / CREATININE / GLUCOSE / LACTATE DEHYDROGENASE / LIPASE / PHOSPHORUS / POTASSIUM / SODIUM / TOTAL BILIRUBIN / TOTAL PROTEIN / URIC ACID: tissue Plasma
[1] = 4.5 mg/kg, 120 h, dose level Low, time 5 day
[2] = 45 mg/kg, 72 h, dose level High, time 3 day
[3] = 45 mg/kg, 120 h, dose level High, time 5 day

Structure (SMILES): NN [HYDRAZINE]
- ABSOLUTE BASOPHIL [1]: 0 CELLS/uL
- ABSOLUTE EOSINOPHIL [1]: 61.33 CELLS/uL
- ABSOLUTE LYMPHOCYTE [1]: 9152.67 CELLS/uL
- ABSOLUTE MONOCYTE [1]: 216 CELLS/uL
- ABSOLUTE SEGMENTED NEUTROPHIL [1]: 1236.67 CELLS/uL
- BASOPHIL [1]: 0%
- EOSINOPHIL [1]: 0.67%
- ERYTHROCYTE COUNT [1]: 5.22 x10E6/uL
- HEMATOCRIT [1]: 32.97%
- HEMOGLOBIN [1]: 13.03 G/DL
- LEUKOCYTE COUNT [1]: 10.67 x10E3/uL
- LYMPHOCYTE [1]: 85.33%
- MEAN CORPUSCULAR HEMOGLOBIN [1]: 25 pg
- MEAN CORPUSCULAR HEMOGLOBIN CONCENTRATION [1]: 39.57 G/DL
- MEAN CORPUSCULAR VOLUME [1]: 63.23 fL
- MONOCYTE [1]: 2%
- NEUTROPHIL [1]: 12%
- NUCLEATED RED BLOOD CELLS [1]: 0 /100WBC
- PLATELET COUNT [1]: 1367.67 x10E3/uL
- ALANINE AMINOTRANSFERASE [1]: 34.33 u/L
- ALBUMIN [1]: 4.27 G/DL
- ALKALINE PHOSPHATASE [1]: 357 u/L
- ASPARTATE AMINOTRANSFERASE [1]: 88.33 u/L
- BLOOD UREA NITROGEN [1]: 18.33 mg/dL
- CARBON DIOXIDE [1]: 28 mmol/L
- CHLORIDE [1]: 100 MEQ/L
- CHOLESTEROL [1]: 80 mg/dL
- CREATINE PHOSPHOKINASE [1]: 469 u/L
- CREATININE [1]: 0.17 mg/dL
- GLUCOSE [1]: 135.67 mg/dL
- LACTATE DEHYDROGENASE [1]: 538.33 u/L
- LIPASE [1]: 11 u/L
- PHOSPHORUS [1]: 11.77 mg/dL
- POTASSIUM [1]: 5.73 MEQ/L
- SODIUM [1]: 142.13 MEQ/L
- TOTAL BILIRUBIN [1]: 0.13 mg/dL
- TOTAL PROTEIN [1]: 5.87 G/DL
- URIC ACID [1]: 1.37 mg/dL
- ABSOLUTE BASOPHIL [2]: 0 CELLS/uL
- ABSOLUTE EOSINOPHIL [2]: 101.33 CELLS/uL
- ABSOLUTE LYMPHOCYTE [2]: 9888 CELLS/uL
- ABSOLUTE MONOCYTE [2]: 143.33 CELLS/uL
- ABSOLUTE SEGMENTED NEUTROPHIL [2]: 634 CELLS/uL
- BASOPHIL [2]: 0%
- EOSINOPHIL [2]: 1%
- ERYTHROCYTE COUNT [2]: 5.85 x10E6/uL
- HEMATOCRIT [2]: 35.23%
- HEMOGLOBIN [2]: 13.87 G/DL
- LEUKOCYTE COUNT [2]: 10.77 x10E3/uL
- LYMPHOCYTE [2]: 91.67%
- MEAN CORPUSCULAR HEMOGLOBIN [2]: 23.77 pg
- MEAN CORPUSCULAR HEMOGLOBIN CONCENTRATION [2]: 39.43 G/DL
- MEAN CORPUSCULAR VOLUME [2]: 60.27 fL
- MONOCYTE [2]: 1.33%
- NEUTROPHIL [2]: 6%
- NUCLEATED RED BLOOD CELLS [2]: 0.33 /100WBC
- PLATELET COUNT [2]: 1202 x10E3/uL
- ALANINE AMINOTRANSFERASE [2]: 14 u/L
- ALBUMIN [2]: 4.07 G/DL
- ALKALINE PHOSPHATASE [2]: 403.33 u/L
- ASPARTATE AMINOTRANSFERASE [2]: 77.67 u/L
- BLOOD UREA NITROGEN [2]: 17.67 mg/dL
- CARBON DIOXIDE [2]: 31.33 mmol/L
- CHLORIDE [2]: 98.33 MEQ/L
- CHOLESTEROL [2]: 44 mg/dL
- CREATINE PHOSPHOKINASE [2]: 676.33 u/L
- CREATININE [2]: 0.11 mg/dL
- GLUCOSE [2]: 133.33 mg/dL
- LACTATE DEHYDROGENASE [2]: 533 u/L
- LIPASE [2]: 11 u/L
- PHOSPHORUS [2]: 11.23 mg/dL
- POTASSIUM [2]: 6.63 MEQ/L
- SODIUM [2]: 138.67 MEQ/L
- TOTAL BILIRUBIN [2]: 0.13 mg/dL
- TOTAL PROTEIN [2]: 5.5 G/DL
- URIC ACID [2]: 1.6 mg/dL
- ABSOLUTE BASOPHIL [3]: 0 CELLS/uL
- ABSOLUTE EOSINOPHIL [3]: 63.33 CELLS/uL
- ABSOLUTE LYMPHOCYTE [3]: 8413.33 CELLS/uL
- ABSOLUTE MONOCYTE [3]: 93 CELLS/uL
- ABSOLUTE SEGMENTED NEUTROPHIL [3]: 730.33 CELLS/uL
- BASOPHIL [3]: 0%
- EOSINOPHIL [3]: 0.67%
- ERYTHROCYTE COUNT [3]: 5.35 x10E6/uL
- HEMATOCRIT [3]: 31.4%
- HEMOGLOBIN [3]: 12.23 G/DL
- LEUKOCYTE COUNT [3]: 9.3 x10E3/uL
- LYMPHOCYTE [3]: 90.67%
- MEAN CORPUSCULAR HEMOGLOBIN [3]: 22.9 pg
- MEAN CORPUSCULAR HEMOGLOBIN CONCENTRATION [3]: 38.97 G/DL
- MEAN CORPUSCULAR VOLUME [3]: 58.77 fL
- MONOCYTE [3]: 1%
- NEUTROPHIL [3]: 7.67%
- NUCLEATED RED BLOOD CELLS [3]: 0 /100WBC
- PLATELET COUNT [3]: 1463.33 x10E3/uL
- ALANINE AMINOTRANSFERASE [3]: 14.67 u/L
- ALBUMIN [3]: 4 G/DL
- ALKALINE PHOSPHATASE [3]: 346 u/L
- ASPARTATE AMINOTRANSFERASE [3]: 75.67 u/L
- BLOOD UREA NITROGEN [3]: 18.67 mg/dL
- CARBON DIOXIDE [3]: 25.33 mmol/L
- CHLORIDE [3]: 99 MEQ/L
- CHOLESTEROL [3]: 50.67 mg/dL
- CREATINE PHOSPHOKINASE [3]: 391.33 u/L
- CREATININE [3]: 0.11 mg/dL
- GLUCOSE [3]: 153.33 mg/dL
- LACTATE DEHYDROGENASE [3]: 326 u/L
- LIPASE [3]: 11.33 u/L
- PHOSPHORUS [3]: 11.23 mg/dL
- POTASSIUM [3]: 6.42 MEQ/L
- SODIUM [3]: 139.93 MEQ/L
- TOTAL BILIRUBIN [3]: 0.2 mg/dL
- TOTAL PROTEIN [3]: 5.37 G/DL
- URIC ACID [3]: 1.4 mg/dL
